Results from ChEMBL document CHEMBL3217454, “Structureactivity relationship studies using peptide arrays: the example of HIV-1 Revintegrase interaction” (Medchemcomm, 2013).
Square brackets hold non-standard residues; d marks the D form. Peptide text beside a SMILES is read from it. NMeK = CN[C@@H](CCCCN)C(=O)O

Tests used:
[1] = tested on: Human immunodeficiency virus 1; assay: Binding affinity to HLT-tagged HIV-1 Rev measured after overnight incubation by chemiluminescence analysis relative to IN 118-128; set-up: concentration or dose not given beside the values
[2] = biological target: Human immunodeficiency virus type 1 integrase (Human immunodeficiency virus 1) (UniProt Q7ZJM1); assay: Binding affinity to HIV-1 integrase measured after overnight incubation by chemiluminescence analysis relative to IN 118-128; set-up: concentration or dose not given beside the values
Human immunodeficiency virus type 1 integrase (Human immunodeficiency virus 1), sequence (Q7ZJM1 as listed by the source): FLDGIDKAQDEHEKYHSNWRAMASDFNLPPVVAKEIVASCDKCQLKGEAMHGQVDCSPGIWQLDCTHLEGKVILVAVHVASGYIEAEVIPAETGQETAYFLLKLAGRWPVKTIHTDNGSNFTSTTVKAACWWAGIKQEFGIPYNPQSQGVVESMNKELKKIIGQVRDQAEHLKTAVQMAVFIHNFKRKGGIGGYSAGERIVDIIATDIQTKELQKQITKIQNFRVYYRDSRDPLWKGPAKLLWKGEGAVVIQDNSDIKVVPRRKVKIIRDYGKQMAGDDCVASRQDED

Row | Structure (SMILES) | Activity [1] [%] | Activity [2] [%]
1 | C[C@H](NC(=O)[C@H](CCCCN)NC(=O)[C@H](C)NC(=O)[C@@H](NC(=O)[C@@H](NC(=O)[C@H](CO)NC(=O)[C@@H](NC(=O)[C@H](Cc1ccccc1)NC(=O)[C@H](CC(N)=O)NC(=O)[C@H](CO)NC(=O)CN)[C@@H](C)O)[C@@H](C)O)[C@@H](C)O)C(=O)O (H-GSNFTSTTAKA-OH) | 64 | 129
2 | CC(C)[C@H](NC(=O)[C@@H](NC(=O)[C@H](NC(=O)[C@H](CO)NC(=O)[C@@H](NC(=O)[C@H](Cc1ccccc1)NC(=O)[C@H](CC(N)=O)NC(=O)[C@H](CO)NC(=O)CN)[C@@H](C)O)[C@@H](C)O)[C@@H](C)O)C(=O)N[C@@H](CCCCN)C(=O)N[C@@H](C)C(=O)O | 176 | 150
3 | C[C@@H](O)[C@H](NC(=O)[C@H](CO)NC(=O)[C@@H](NC(=O)[C@H](Cc1ccccc1)NC(=O)[C@H](CC(N)=O)NC(=O)[C@H](CO)NC(=O)CN)[C@@H](C)O)C(=O)O (H-GSNFTST-OH) | 0 | 34
4 | CC(C)[C@H](NC(=O)[C@@H](NC(=O)[C@@H](NC(=O)[C@H](CO)NC(=O)[C@@H](NC(=O)[C@H](Cc1ccccc1)NC(=O)[C@H](CC(N)=O)NC(=O)[C@H](CO)NC(=O)CN)[C@@H](C)O)[C@@H](C)O)[C@@H](C)O)C(=O)N(C)[C@@H](CCCCN)C(=O)N[C@@H](C)C(=O)O (H-GSNFTSTTV[NMeK]A-OH) | 191 | 185
5 | CC(C)[C@H](NC(=O)[C@@H](NC(=O)[C@H](C)NC(=O)[C@H](CO)NC(=O)[C@@H](NC(=O)[C@H](Cc1ccccc1)NC(=O)[C@H](CC(N)=O)NC(=O)[C@H](CO)NC(=O)CN)[C@@H](C)O)[C@@H](C)O)C(=O)N[C@@H](CCCCN)C(=O)N[C@@H](C)C(=O)O (H-GSNFTSATVKA-OH) | 107 | 231
6 | CC(C)[C@H](NC(=O)[C@@H](NC(=O)[C@@H](NC(=O)[C@H](CO)NC(=O)[C@@H](NC(=O)[C@H](Cc1ccccc1)NC(=O)[C@@H](CC(N)=O)NC(=O)[C@H](CO)NC(=O)CN)[C@@H](C)O)[C@@H](C)O)[C@@H](C)O)C(=O)N[C@@H](CCCCN)C(=O)N[C@@H](C)C(=O)O | 144 | 133
